# Like-named read-outs stand apart in the source and are kept apart here. Marks after values point to notes of the source that are not given here.
# T1: human 5LOX (Homo sapiens, UniProt P09917)
# T1 construct: purchased Cayman Chemical
# T1 sequence (P09917 1-674): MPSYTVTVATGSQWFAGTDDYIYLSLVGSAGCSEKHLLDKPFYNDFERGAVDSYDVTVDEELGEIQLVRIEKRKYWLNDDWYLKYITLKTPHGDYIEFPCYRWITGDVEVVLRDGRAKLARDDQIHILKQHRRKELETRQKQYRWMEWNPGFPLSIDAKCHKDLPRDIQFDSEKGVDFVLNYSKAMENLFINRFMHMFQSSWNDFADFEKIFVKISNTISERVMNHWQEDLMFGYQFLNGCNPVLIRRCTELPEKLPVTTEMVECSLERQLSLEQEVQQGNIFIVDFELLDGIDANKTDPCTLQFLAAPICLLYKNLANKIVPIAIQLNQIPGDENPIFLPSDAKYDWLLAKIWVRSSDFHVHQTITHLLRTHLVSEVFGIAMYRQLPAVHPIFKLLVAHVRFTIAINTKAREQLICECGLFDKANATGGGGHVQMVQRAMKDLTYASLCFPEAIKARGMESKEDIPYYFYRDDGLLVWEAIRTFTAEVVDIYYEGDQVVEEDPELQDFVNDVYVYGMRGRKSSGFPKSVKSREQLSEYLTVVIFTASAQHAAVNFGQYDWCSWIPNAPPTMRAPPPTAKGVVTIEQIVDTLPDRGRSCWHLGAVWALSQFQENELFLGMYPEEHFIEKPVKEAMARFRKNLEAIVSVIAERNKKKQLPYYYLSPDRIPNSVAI
# B1: 5LOX: Human recombinant 5LOX (Cayman Chemical) (protein, UniProt P09917 1-674, looked up)
# Polyunsaturated fatty acid …: T1 sequence (P09917 1-674)
# Experiments:
# [1] = tested on: TNFα-Stimulated NO2^− Production in EOC-20 Cells; test: TNFα-stimulated nitrite (NO2−) production in EOC-20 microglial cells, Griess assay; format: cell-based, mouse; conditions: for IC50: read-out: IC50
# Procedure: Cells were cultured in 24 well plates until confluent then treated with test agent, which was dissolved at 100× final concentration in dimethylsulfoxide (DMSO), or with vehicle only. Thirty minutes after treatment with test agent, cells were treated with 10 ng/mL recombinant mouse TNFα (Pharmingen, San Diego, Calif. USA). […] Each compound was tested at 100 μM, 20 μM, 4 μM, 0.8 μM and 0 μM in the presence of TNFα. Four wells of cells were used for each concentration of test agent.
# (§1) Lower IC50 values indicate improved efficacy. FIG. 2 illustrates the principle of the measurement using NDGA as an example test agent. In order to determine viability, cell culture medium was replaced with phenol-free DMEM (Gibco) containing 20 μL/mL of MTT viability reagent (Promega). […] Control cells were taken to indicate 100% viability and intermediate values of MTT reduction were scaled to percentage of control. For each compound, an LD50 value was determined by extrapolation through sublethal concentrations. This value represents the concentration that reduced the MTT viability parameter by 50%.
# [2] = tested on: lipoxygenase; conditions: cited from earlier work
# [3] = tested on: EOC-20 cells
# Procedure: as §1
# [4] = tested on: LnCAP Production of PSA; test: LnCAP production of PSA (ELISA); format: cell-based; conditions: 24 h
# Procedure: LnCAP prostate cancer cells were be cultured according to established methods (Horoszewicz et al., 1983). These cells product prostate-specific antigen (PSA), a serine protease that predicts metastatic potential ([…] et al., 2000). […] Each drug was tested in triplicate at each concentration. Medium was removed and tested for PSA concentration using a commercially available enzyme-linked immunosorbent assay (ELISA). Viability was determined in the adherent cells using the MTT assay.
# [5] = tested on: C6 astrocyte culture exposed to lipopolysaccharide plus interferon gamma; conditions: LPS-stimulated C6 astrocyte model, Soliman et al., 1998; cited from earlier work
# [6] = tested on: TNFα-Mediated Nitrite Production in EOC-20 Cells; test: Leukotrienes added to EOC-20 cells with or without low-dose TNFα, nitrite at 24 h; format: cell-based, mouse; conditions: for autonomous stimulation of NO2− production: without TNFα
# Procedure: Because 5LOX inhibitors tended to antagonize TNFα, the converse experiment was performed of directly adding 5LOX metabolites to EOC-20 cells in the presence or absence of TNFα. LTB4 was added to microglia at 10 μM and TNFα was added at a low dose (4 ng/mL) 10 min later. Nitrite was assayed at 24 h. […] Similar examples exist in the literature of LTB4 synergizing with IFNγ to activate macrophages (Talvani et al., 2002).
# [7] = tested on: pro-inflammatory cytokines in EOC-20 microglial cells; test: Multiprobe ribonuclease protection assay of cytokine transcription in TNFα-stimulated EOC-20 cells; format: cell-based, mouse
# Source text: It was noted that IL1β, IL1RA, IFNγ and MIF were affected by the treatments, while IL18 was not.
# [8] = tested on: C57/B6 mice; test: 3-nitropropionic acid (3NP) striatal damage model, rotarod and balance beam; format: in vivo; conditions: 2500 ppm in diet for one month, then 3NP 50 mg/kg i.p. every 12 h for 5 days
# Procedure: Mice were then injected with 50 mg/kg 3NP intraperitoneally, every 12 h for 5 days. Motor performance was assessed daily by a rotarod task and balance was assessed by a balance wire task. In the rotarod task (Hensley et al. 2002), animals were placed on a bar rotating at 1 rpm and accelerating 10 rpm/minute until the animal fell from the bar. In the balance beam test, mice were placed on a 2-cm balance beam by suspending them by the tail, orienting them perpendicular to the beam, and placing the forepaws followed by hindpaws on the balance beam. Mice were left on the beam until they fell onto a soft cushion 75 cm below or until 5 min elapsed. The longest time of each pair of trials was used for statistical analysis.
# [9] = target: T1, human 5LOX; test: Microtiter plate binding of SOD1 to immobilized 5LOX; conditions: Scatchard analysis, estimate
# Procedure: In order to circumvent these limitations of the BIAcore technique, a conceptually different strategy was employed to assess SOD1 binding to immobilized 5LOX. Standard 96 well polypropylene microtiter plates were coated with 5LOX by overnight incubation with the protein, which allows adsorption of the 5LOX through mostly hydrophobic interactions with the plate surface. As a control, half of each microplate was coated with BSA. The entire plate was then blocked with BSA, and subsequently incubated for 1 H with various concentrations of SOD1 dissolved in physiologic saline. Binding of SOD1 to the 5LOX-coated (or BSA-coated) microplate wells was quantified using alkaline phosphatase-conjugated anti-SOD1 polyclonal IgG, and p-nitrophenol as the chromophore. FIG. 15 illustrates preliminary binding data obtained from this experiment. SOD1 bound strongly to 5LOX-coated microplates but not to BSA-coated surfaces. […] Experiments may also be conducted to assess differences in 5LOX binding to wild-type versus mutant SOD1.
# [10] = tested on: G93A-SOD1 mice; conditions: administered chronically; Gurney et al., 1996; cited from earlier work
# [11] = target: T2, human wild-type SOD1 (Homo sapiens, UniProt P00441); test: BIAcore binding of 5LOX to immobilized SOD1; conditions: preliminary Scatchard analysis, upper bound
# T2 construct: purified to homogeneity from human erythrocytes; from tissue; host or cells: human erythrocytes
# Source text: Using several techniques that allow the study of protein-protein binding interactions in vitro, the interaction of SOD1 with 5LOX may be investigated. One approach involves the use of BIAcore instrumentation (Amersham-Pharmacia, Upsala, Sweden). The BIA (biomolecular interaction analysis) system consists of a solid-phase support upon which a protein (the ligand) can be covalently immobilized. This surface is placed in contact with a microfluidic cartridge, which dispenses a second protein (the analyte) across the binding surface. Adherence of the analyte to the immobilized ligand is measured by surface plasmon resonance (SPR) spectrometry. The surface plasmon resonance detector responds to refractive index changes in the vicinity of the sensor surface as the immobilized species interacts with its binding partner in the fluid phase. Data output from the BIAcore instrument takes the form of “sensorgrams” (FIG. 14A). Sensorgrams can be interpreted qualitatively, to assess whether a nonspecific binding event occurs, or quantitatively, in order to measure binding affinity.
# In a previous experiment, human wild-type SOD1 (purified to homogeneity from human erythrocytes) was covalently immobilized to the BIAcore chip via surface lysine residues, using standard carbodiimide coupling chemistry. […] Experiments to quantitate the binding affinity are conducted. […]
# [12] = Mus musculus, 24 h, Table III, 10 ng/mL TNFα, 24 hr, by interpolation
# [13] = Table III, 10 ng/mL TNFα, 24 hr, by interpolation
# T2 sequence (P00441 2-154 limits assumed): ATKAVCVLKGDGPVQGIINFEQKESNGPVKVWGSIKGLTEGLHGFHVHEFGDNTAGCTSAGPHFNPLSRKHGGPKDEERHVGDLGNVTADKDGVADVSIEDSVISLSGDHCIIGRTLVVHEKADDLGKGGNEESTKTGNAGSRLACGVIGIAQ
molecule,measurement,setting,value
"O=C(/C=C/c1ccc(O)c(O)c1)OCCc1ccccc1 [caffeic acid phenethyl ester (CAPE), caffeic acid phenethyl ester]",activity against TNFα-stimulated nitrite production,[1],approximately as effective as curcumin
same,IC50,[1]; [12],12 µM
same,IC50,"[1]; Mus musculus, Table V",12 µM
same,efficacy relative to NDGA as inhibitor of TNFα-stimulated microglial activation,[1]; fold less effective than NDGA,4 fold
same,lipoxygenase inhibition relative to NDGA,"[2]; times more effective than NDGA, Mirzoeva and Calder, 1996",~10 times
O=c1c(O)c(-c2ccc(O)c(O)c2)oc2cc(O)cc(O)c12 [Quercetin],IC50,[1]; [12],44 µM
same,LD50,[3],nontoxic
same,IC50,"[4]; Homo sapiens, LNCaP, extrapolated",131 µM
same,IC50,[5],0.062 µM
"CCCCC/C=C\C[C@@H](O)/C=C/C=C/C=C\[C@@H](O)CCCC(=O)O [LTB4, Leukotriene B4]",effect on nitrite yield with low-dose TNFα,"[6]; 10 μM, TNFα 4 ng/mL, 24 h",synergized with low-dose TNFα to produce a significantly greater nitrite yield
same,autonomous stimulation of NO2− production,[6],Neither LTA4 nor LTB4 stimulated NO2^− production autonomously
CCCCC/C=C\C\C=C/C=C/C=C/[C@@H]1O[C@H]1CCCC(=O)O [LTA4],autonomous stimulation of NO2− production,[6],Neither LTA4 nor LTB4 stimulated NO2^− production autonomously
"Oc1cc(O)cc(/C=C/c2ccc(O)c(O)c2)c1 [Piceatannol, 3,3′,4′,5 -tetrahydroxy stilbene]",IC50,[1]; [12],15 µM
same,LD50,"[3]; Table III, MTT viability, by extrapolation through sublethal concentrations",nontoxic
same,IC50,"[4]; Homo sapiens, LNCaP",42 µM
same,transcription of pro-inflammatory cytokines,[7],differentially inhibited transcription of the pro-inflammatory cytokines
"7-Bis (4-hydroxy-3-methoxyphenyl)-1,6-heptadiene-3,5-dione [Curcumin]",IC50,[1]; [13],7 µM
same,IC50,[1]; Table V,14 µM
same,balance test,[8],no effect
same,rotarod test,[8],possibly a detrimental effect
same,IC50,[5],72 µM
"Oc1ccc(/C=C/c2cc(O)cc(O)c2)cc1 [Resveratrol, 3,4′,5-trihydroxy stilbene]",IC50,[1]; [12],80 µM
same,LD50,[3],nontoxic
same,IC50,"[4]; Homo sapiens, LNCaP",43 µM
O=c1c(O)c(-c2ccc(O)cc2O)oc2cc(O)cc(O)c12 [morin],IC50,[5],56 µM
"SOD1: Cu, Zn-superoxide dismutase, binding partner of 5LOX",Kd,[9],1.4 µM
O=c1cc(-c2ccccc2)oc2cccc(O)c12 [5-OH-flavone],IC50,[1]; [13],34 µM
same,LD50,[3],310 μm
same,IC50,[4]; extrapolated,227 µM
O=C(O[C@@H]1Cc2c(O)cc(O)cc2O[C@@H]1c1ccc(O)c(O)c1)c1cc(O)c(O)c(O)c1 [epicatechin gallate],IC50,[5],10 µM
COc1ccc(C[C@@H](C)[C@@H](C)Cc2ccc(OC)c(OC)c2)cc1OC [tetra-o-methyl-NDGA],activity against TNFα-stimulated nitrite production,[1],modest bioactivity
same,IC50,[1]; Table V,20 µM
same,LD50,[3],125* μM
same,lipoxygenase inhibition,[2]; literature,does not inhibit lipoxygenase
Nc1nc2ccc(OC(F)(F)F)cc2s1 [Riluzole],extension in lifespan,[10],10 days
B1,Kd,[11],≤ 20 µM

# Source: patent US20040014721A1, “Method for using tethered bis(polyhydroxyphenyls) and O-alkyl derivatives thereof in treating inflammatory conditions of the central nervous system” (Oklahoma Medical Research Foundation, priority 2002, published 2004)
